These results are taken from patent US10166177B2, “Silk protein fragment compositions and articles manufactured therefrom” (Silk, Inc., priority 2013, dated 2019).

Common to all, as to assay type: physicochemical
The nature of data set [1]: Gel formation with vitamin C derivatives in 2% silk solution. The note with it: 100 mg of vitamin C derivative in 15 mL of 2% silk solution. As for the experimental part:
The Tables in FIGS. 89A-89B summarize embodiments of gels of the present disclosure. Ascorbic acid-2-glucoside was the most successful vitamin C derivative at gel formation with gel being formed in a 2% silk solution in 3 days. […] In all cases 100 mg of vitamin C derivative was mixed in 15 mL of 2% silk solution, and all gels had the same appearance as gels created with ascorbic acid.
Gels were also cast with combinations of two vitamin C options. In each case, at least one of the vitamin C options was known to cause gelation (L-ascorbic acid or ascorbic acid-2-glucoside). All combination gels were able to gel at 1% total vitamin C additive concentration. […] Without wishing to be bound by theory, it appears there is a relationship between vitamin C concentration, silk concentration, and gelation. An increase in vitamin C at a given concentration of silk will result in a longer time to gelation or inhibit gelation. This may be due to the vitamin C molecule physically blocking interaction between silk protein fragments or cross-linking of silk protein. Modification to pH may allow additional concentrations of vitamin C and derivatives thereof to be added.

The nature of data set [2]: HPLC chromatograms of vitamin C samples (degradation products). The note with it: after 1 hour at ambient conditions without chemical stabilization. On the procedure: FIGS. 36A and 36B show HPLC chromatograms from samples comprising vitamin C. […] No degradation products were visible.
FIGS. 36A and 36B show two HPLC chromatograms from samples comprising vitamin C. […] No degradation products were visible. FIG. 59 is a table summarizing the vitamin C concentration in silk protein fragment-films (2% silk films air dried at RT) of the present disclosure. In FIG. 59 processing conditions included 100° C. extraction for 20 min, RT rinse, LiBr in 60° C. oven for 4-6 hours. FIG. 60 is a table summarizing the stability of vitamin C in chemically stabilized solutions. FIGS. 89A-89B are tables summarizing vitamin C stability in SPF gels without chemical stabilizers as compared to chemically stabilized vitamin C in competitive anti-aging skincare products. […] Without wishing to be bound by theory, it appears there is a relationship between vitamin C concentration, silk concentration, and gelation. An increase in vitamin C at a given concentration of silk will result in a longer time to gelation or inhibit gelation. This may be due to the vitamin C molecule physically blocking interaction between silk protein fragments or cross-linking of silk protein.

A short description of data set [3]: Dissolution of vitamin C derivative in aqueous silk solution. The source says: Ascorbyl tetraisopalmitate is a highly viscous, oil soluble liquid that might need the help of an emulsifier to possible dissolve in aqueous silk solution.

Turning to `O=C1O[C@H]([C@@H](O)CO)C([O-])=C1OP(=O)([O-])[O-].[Na+].[Na+].[Na+]` [Sodium Ascorbyl Phosphate (Aromantic), Sodium Ascorbyl Phosphate], the “time to gel formation” value in data set [1] is recorded as “failed to create a gel”.

Turning to `O=C1O[C@H]([C@@H](O)CO)C(O)=C1O` [vitamin C, L-ascorbic acid], the “vitamin C degradation products (HPLC)” value in data set [2] is reported as “degradation products are visible”.

As for `O=C1O[C@H]([C@@H](O)CO)C([O-])=C1OP(=O)([O-])[O-].[Na+].[Na+].[Na+]` [Sodium ascorbyl phosphate from DSM, Sodium ascorbyl phosphate], the “time to gel formation” value in data set [1] is reported as 28 days.

On to `O=C1O[C@H]([C@@H](O)CO)C(O)=C1O[C@H]1O[C@H](CO)[C@@H](O)[C@H](O)[C@H]1O` [Ascorbic acid-2-glucoside], for which, in data set [1], the “time to gel formation” value is given as 3 days.

Regarding `CCCCCCCCC(CCCCCC)C(=O)OC[C@H](OC(=O)C(CCCCCC)CCCCCCCC)[C@H]1OC(=O)C(OC(=O)C(CCCCCC)CCCCCCCC)=C1OC(=O)C(CCCCCC)CCCCCCCC` (some centres unmarked) [Ascorbyl tetraisopalmitate], in data set [3], the “ability to dissolve or be dispersed in aqueous silk solution” value is given as “unable to dissolve or be dispersed”.
